Literature values as cited in article PMC3649970, “A Unique Spumavirus Gag N-terminal Domain with Functional Properties of Orthoretroviral Matrix and Capsid” (PLoS Pathogens, 2013).

Test system: equivalent Gag-NtD (FFV)
Conditions: FFV Env leader peptide with FFV Gag-NtD; ref [29]; cited from earlier work
Source text: In the structure, residues 7–16 of the Env leader peptide comprise the amphipathic α-helix bound in the Env binding site of the Gag-NtD and residues 1–6 provide intramolecular hydrogen bonding that stabilises the helical conformation. […] Therefore, the hydrophobic interface observed in the structure likely represents the complete interaction between the leader peptide and FV Gag. The apolar ch ...

In the case of “residues 1–30 of the FFV Env leader peptide: residues 1–30 of the FFV Env leader peptide (MEQEHVMTLKEWMEWNAHKQLQKLQSTHPE; leader peptide; UniProt O56861 1-30, looked up, fragment)”, the equilibrium association constant is listed as 65000 M⁻¹.
